These results are taken from US8710097B2, “Flavonoid dimers and methods of making and using such” (The Hong Kong Polytechnic University, priority 2006, dated 2014).

The IC50 is the concentration that gives 50% inhibition.

Assay [1] deals with SSG-resistant L. donovani Ld39 promastigotes. Briefly: microbe, parasite or virus in culture. The assay is classed as cell-based, Leishmania donovani.
In assay [2] the test system is LeMDR1 overexpressed L. enriettii (LeV160). The assay is described as follows: Leishmania cell viability (MTS) assay. To be noted: LeV160. The class given is cell-based, Leishmania enriettii. The text has this: (§1) Cell lines and Cell Culture.
In assay [3] the test system is LeMDR1 knockout (LeMDR1 −/−) L. enriettii. Briefly: Leishmania cell viability (MTS) assay. The assay is classed as cell-based, Leishmania enriettii. As to conditions: LeMDR1 −/−.
Description: as §1

In another assay the test system is Ld2001 amastigotes. The assay is described as follows: Total antimony (SSG) accumulation assay using ICP-MS. As to conditions: 3 hr. The assay is classed as cell-based, Leishmania donovani. Here is the method: (§2) Amastigotes of L. donovani was prepared by spinning down 50 mL 4-day-old promastigotes (late log phase), and transferred to an axenic medium containing M199 Medium (Gibco), 0.5% Trypto casein soya, 3 mM L-cysteine, 15 mM D-glucose, 5 mM L-glutamine, 4 mM NaHCO3, 25 mM HEPES, 0.01 mM bathocuproine-disulfonic acid and 0.023 mM Hemin. Cells were then incubated at 37° C. for 24 hr. Amastigotes became ovoid in shape and were ready for drug accumulation assay.
(§3) The effect of flavonoid dimers on accumulation of antimony sodium stibogluconate (SSG) was investigated. Amastigotes are more susceptible to SSG and therefore accumulate more SSG as compared to promastigotes. Therefore, amastigotes were chosen for studying the Sb accumulation assay. […] After 3 hour incubation, the parasites were washed thrice with cold PBS, pH 7.4. The cell pellet was dissolved in 200 μL concentrated nitric acid for 24 hr at room temperature. The sample was diluted to 3 mL with distilled water, resulting in a final concentration of about 5 ppb of total Sb solution. It was then injected to ICP-MS (Perkin-Elmer) for quantitation. Antimony was measured at its m/z ratios of 121 and 123 with indium (In, m/z=115) as an internal standard. All chemicals used for the pretreatment of the samples were of at least analytical grade and the distilled water used directly as received without further purification.

A further assay deals with Ld39 amastigotes. The description is as above. The assay is classed as cell-based, Leishmania donovani. As to conditions: 3 hr. The procedure: as §2, §3
A further assay relates to LdAG83 amastigotes. Described as above. To be noted: 9d 30 μM or 60 μM. The class given is cell-based, Leishmania donovani. The procedure: as §2, §3
A further assay has as its system MDA435/LCC6 MDR cells. The assay is described as follows: cells.
Setting [4] is: MDA435/LCC6 MDR, 5 μM dimer, FIG. 5.

Turning to `O=c1cc(-c2ccc(OCCOCCOCCOCCOc3ccc(-c4cc(=O)c5c(O)cc(O)cc5o4)cc3)cc2)oc2cc(O)cc(O)c12` [Compound 9d, 1,13-Bis[4′-((5,7-dihydroxy)-4H-chromen-4-on-2-yl)phenyl]-1,4,7,10,13-pentaoxamidecane], the “reduction of SSG resistance level” value in assay [1] (Ld39, 4 μM, FIGS. 17A and 17B) is “back to the level of the sensitive strain”. Besides, the SSG sensitization in assay [1] (Ld39, FIG. 18B) is recorded as 3.9 fold. Also, the IC50 in assay [1] (cytotoxicity of compound alone, 72 hrs, read-out: IC50(μM) of synthetic flavonoid, Ld39) came to 10 ± 0.9 µM. Moreover, the “decrease of IC50 of pentamidine” value in assay [2] is recorded as ~1.9 fold. The pentamidine sensitization in assay [3] is on record as 4.1 fold. For the same compound, the “SSG accumulation, % of that of LdAG83” value is on record as 83% in the assay on Ld2001 amastigotes (30 μM 9d), 69% in the assay on Ld2001 amastigotes (60 μM 9d), 74% with Ld39 amastigotes (30 μM 9d) and 90% in the assay on Ld39 amastigotes (60 μM 9d). The “accumulation of SSG versus cells without treatment” value in the assay on LdAG83 amastigotes was “did not significantly differ”. In addition, in the assay on MDA435/LCC6 MDR cells (LCC6 MDR, daunorubicin + 5 μM 9d), the “RF, daunorubicin (IC50 without modulator / IC50 with modulator)” value was 7.6. Moreover, the “RF, doxorubicin (IC50 without modulator / IC50 with modulator)” value in the assay with MDA435/LCC6 MDR cells (LCC6 MDR, doxorubicin + 5 μM 9d or VP) was 9. Besides, the “RF, mitoxantrone (IC50 without modulator / IC50 with modulator)” value in the assay with MDA435/LCC6 MDR cells (LCC6 MDR, mitoxantrone + 5 μM 9d) is reported as 2.2. For the same compound, the “RF, taxol (IC50 without modulator / IC50 with modulator)” value in the assay with MDA435/LCC6 MDR cells (LCC6 MDR, taxol + 5 μM 9d or VP) came to 22. Moreover, in the assay on MDA435/LCC6 MDR cells (LCC6 MDR, vinblastine + 5 μM 9d or VP), the “RF, vinblastine (IC50 without modulator / IC50 with modulator)” value worked out at 10. The “RF, vincristine (IC50 without modulator / IC50 with modulator)” value in the assay with MDA435/LCC6 MDR cells (LCC6 MDR, vincristine + 5 μM 9d) is on record as 41. In addition, the “reversal of resistance to vinblastine, taxol, doxorubicin, vincristine, daunorubicin” value in the assay on MDA435/LCC6 MDR cells (MDA435/LCC6 MDR, 5 μM 9d, FIG. 6A to 6E) was “to a level close to the parental”. In the assay on MDA435/LCC6 MDR cells (MDA435/LCC6 MDR, 5 μM 9d, FIG. 6F), the “effect on mitoxantrone resistance” value is listed as “No effect”. Also, the “IC60 of doxorubicin with modulator” value with MDA435/LCC6 MDR cells (setting [4]) is 0.73 µM. For the same compound, in the assay on MDA435/LCC6 MDR cells (setting [4]), the “reduction of IC60 of doxorubicin, RF” value is “about 6 RF”. In addition, in the assay on MDA435/LCC6 MDR cells (MDA435/LCC6 MDR, FIG. 3B), the “concentration reaching the plateau of taxol reversing activity” value turned out to be 5 µM.
